Measured values: patent publication US9040545B2, “Heterocyclyl pyrazolopyrimidine analogues as selective JAK inhibitors” (Cellzome Limited, priority 2010, dated 2015)
pIC50: −log10 of the molar value.

Tests used:
Aurora B = molecular target: T1, Aurora B (Homo sapiens, UniProt Q96GD4); test: Kinobeads assay, Aurora B; type: binding; conditions: for pIC50: lysate of pervanadate-treated Jurkat cells, read-out: Inhibition values (IC50) Aur B
T1 construct: cell lysates from Jurkat cells (ATCC TIB-152) used; endogenous in cells; host or cells: Jurkat cells (ATCC TIB-152), treated with pervanadate
T1 sequence (Q96GD4 whole entry): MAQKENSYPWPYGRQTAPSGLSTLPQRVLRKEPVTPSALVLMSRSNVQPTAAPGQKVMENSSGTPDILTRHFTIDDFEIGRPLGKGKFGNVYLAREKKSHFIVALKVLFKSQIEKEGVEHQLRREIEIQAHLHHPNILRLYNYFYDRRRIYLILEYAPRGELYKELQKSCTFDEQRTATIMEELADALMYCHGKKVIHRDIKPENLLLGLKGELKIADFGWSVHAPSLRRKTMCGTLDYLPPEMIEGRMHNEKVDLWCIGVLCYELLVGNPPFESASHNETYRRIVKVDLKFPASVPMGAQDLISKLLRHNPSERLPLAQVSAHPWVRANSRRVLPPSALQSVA

JAK2 = molecular target: T2, JAK2 (Homo sapiens, UniProt O60674); test: Kinobeads assay, JAK2; type: binding; conditions: mixed Molt4/Ramos lysate, read-out: Inhibition values (IC50) JAK2
T2 construct: endogenous in cells; host or cells: mixed Molt4/Ramos lysate (1:2)
T2 sequence (O60674 whole entry): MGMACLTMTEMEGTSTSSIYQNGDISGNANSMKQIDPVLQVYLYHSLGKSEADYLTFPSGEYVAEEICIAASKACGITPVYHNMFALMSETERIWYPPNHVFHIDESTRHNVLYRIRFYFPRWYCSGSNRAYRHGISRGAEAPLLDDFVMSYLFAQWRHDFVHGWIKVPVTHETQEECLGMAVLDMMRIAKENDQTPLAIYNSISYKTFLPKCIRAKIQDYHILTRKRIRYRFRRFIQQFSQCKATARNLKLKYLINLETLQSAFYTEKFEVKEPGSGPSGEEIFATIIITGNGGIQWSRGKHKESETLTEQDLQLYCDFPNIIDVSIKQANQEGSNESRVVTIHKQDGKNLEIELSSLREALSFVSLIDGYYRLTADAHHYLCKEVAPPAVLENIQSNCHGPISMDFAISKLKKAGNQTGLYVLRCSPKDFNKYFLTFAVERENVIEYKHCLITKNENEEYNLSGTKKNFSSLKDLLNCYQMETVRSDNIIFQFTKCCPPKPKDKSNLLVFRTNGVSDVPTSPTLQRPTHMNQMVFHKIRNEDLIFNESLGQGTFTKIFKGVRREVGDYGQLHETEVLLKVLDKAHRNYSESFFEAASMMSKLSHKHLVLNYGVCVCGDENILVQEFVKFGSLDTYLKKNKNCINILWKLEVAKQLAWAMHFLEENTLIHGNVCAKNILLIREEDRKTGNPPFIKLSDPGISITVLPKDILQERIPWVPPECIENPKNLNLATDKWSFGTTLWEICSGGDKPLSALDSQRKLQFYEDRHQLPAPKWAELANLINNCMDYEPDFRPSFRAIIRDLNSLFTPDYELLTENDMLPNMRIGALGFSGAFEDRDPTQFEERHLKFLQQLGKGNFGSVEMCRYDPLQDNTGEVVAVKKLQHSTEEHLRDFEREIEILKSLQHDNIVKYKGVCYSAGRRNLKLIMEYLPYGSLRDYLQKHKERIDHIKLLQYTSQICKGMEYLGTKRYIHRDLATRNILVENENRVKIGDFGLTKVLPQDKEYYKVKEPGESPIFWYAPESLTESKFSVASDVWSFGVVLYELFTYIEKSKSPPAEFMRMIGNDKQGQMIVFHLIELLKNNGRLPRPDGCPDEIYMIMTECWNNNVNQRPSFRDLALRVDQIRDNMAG
In short: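 Competition binding in mixed Molt4/Ramos cell lysate (1:2, 10 mg/mL protein) with Kinobeads carrying immobilized aminopyrido-pyrimidine ligand, 3 h in cold room; 9-step 1:3 compound dilution series from 5 mM DMSO stock. Bead-bound JAK2/JAK3 eluted and quantified by antibody dot blot with infrared detection; IC50 from dose-response curves.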

CN(C)CCCn1cc(Nc2ncc3cnn(Cc4c(F)c(F)cc(N5CCOCC5)c4F)c3n2)cn1 [Example 42, N-(1-(3-(Dimethylamino)propyl)-1H-pyrazol-4-yl)-1-(2,3,6-trifluoro-5-morpholinobenzyl)-1H-pyrazolo[3,4-d]pyrimidin-6-amine]
JAK3/AurB Fold Selectivity (Aurora B): 10-50 Fold | pIC50 (Aurora B): 6.00 to 7.00 | pIC50 (JAK2): 5.00 to 6.00

CN(C)CCCn1cc(Nc2ncc3cnn(Cc4cccc(N5CCOCC5)c4F)c3n2)cn1 [Example 43, N-(1-(3-(Dimethylamino)propyl)-1H-pyrazol-4-yl)-1-(2-fluoro-3-morpholinobenzyl)-1H-pyrazolo[3,4-d]pyrimidin-6-amine]
JAK3/AurB Fold Selectivity (Aurora B): >50 Fold | pIC50 (Aurora B): 6.00 to 7.00 | pIC50 (JAK2): 5.00 to 6.00

OCCn1cc(Nc2ncc3cnn(Cc4cc(N5CCOCC5)ccc4F)c3n2)cn1 [Example 44, 2-(4-((1-(2-Fluoro-5-morpholinobenzyl)-1H-pyrazolo[3,4-d]pyrimidin-6-yl)amino)-1H-pyrazol-1-yl)ethanol]
JAK3/AurB Fold Selectivity (Aurora B): 10-50 Fold | pIC50 (Aurora B): 6.00 to 7.00 | pIC50 (JAK2): ≤ 5.00

OCCn1cc(Nc2ncc3cnn(Cc4c(F)c(F)cc(N5CCOCC5)c4F)c3n2)cn1 [Example 45, 2-(4-((1-(2,3,6-Trifluoro-5-morpholinobenzyl)-1H-pyrazolo[3,4-d]pyrimidin-6-yl)amino)-1H-pyrazol-1-yl)ethanol]
JAK3/AurB Fold Selectivity (Aurora B): 10-50 Fold | pIC50 (Aurora B): 6.00 to 7.00 | pIC50 (JAK2): 5.00 to 6.00

O=C1COCCN1c1cccc(Cn2ncc3cnc(Nc4cnn(CCO)c4)nc32)c1F [Example 46, 4-(2-Fluoro-3-((6-((1-(2-hydroxyethyl)-1H-pyrazol-4-yl)amino)-1H-pyrazolo[3,4-d]pyrimidin-1-yl)methyl)phenyl)morpholin-3-one]
JAK3/AurB Fold Selectivity (Aurora B): 10-50 Fold | pIC50 (Aurora B): 6.00 to 7.00 | pIC50 (JAK2): 5.00 to 6.00

OCCn1cc(Nc2ncc3cnn(Cc4cccc(N5CCNCC5)c4)c3n2)cn1 [Example 47, 2-(4-((1-(3-(piperazin-1-yl)benzyl)-1H-pyrazolo[3,4-d]pyrimidin-6-yl)amino)-1H-pyrazol-1-yl)ethanol]
JAK3/AurB Fold Selectivity (Aurora B): 10-50 Fold | pIC50 (Aurora B): 6.00 to 7.00 | pIC50 (JAK2): 5.00 to 6.00

c1cc(Cn2ncc3cnc(Nc4cnn(CC5CCCNC5)c4)nc32)cc(N2CCOCC2)c1 (stereo not drawn) [Example 48, 1-(3-Morpholinobenzyl)-N-(1-(piperidin-3-ylmethyl)-1H-pyrazol-4-yl)-1H-pyrazolo[3,4-d]pyrimidin-6-amine]
JAK3/AurB Fold Selectivity (Aurora B): >50 Fold | pIC50 (Aurora B): 5.00 to 6.00 | pIC50 (JAK2): 5.00 to 6.00

Cn1cc(Nc2ncc3cnn(Cc4cc(F)cc(N5CCOCC5)c4)c3n2)cn1 [Example 49, 1-(3-Fluoro-5-morpholinobenzyl)-N-(1-methyl-1H-pyrazol-4-yl)-1H-pyrazolo[3,4-d]pyrimidin-6-amine]
JAK3/AurB Fold Selectivity (Aurora B): >50 Fold | pIC50 (Aurora B): 5.00 to 6.00 | pIC50 (JAK2): 5.00 to 6.00

CN(C)CCCn1cc(Nc2ncc3cnn(Cc4cccc(N5CCOCC5=O)c4F)c3n2)cn1 [Example 50, 4-(3-((6-((1-(3-(Dimethylamino)propyl)-1H-pyrazol-4-yl)amino)-1H-pyrazolo[3,4-d]pyrimidin-1-yl)methyl)-2-fluorophenyl)morpholin-3-one]
JAK3/AurB Fold Selectivity (Aurora B): >50 Fold | pIC50 (Aurora B): 6.00 to 7.00 | pIC50 (JAK2): 5.00 to 6.00

OCCn1cc(Nc2ncc3cnn(Cc4cc(F)cc(N5CCOCC5)c4)c3n2)cn1 [Example 51, 2-(4-((1-(3-Fluoro-5-morpholinobenzyl)-1H-pyrazolo[3,4-d]pyrimidin-6-yl)amino)-1H-pyrazol-1-yl)ethanol]
JAK3/AurB Fold Selectivity (Aurora B): >50 Fold | pIC50 (Aurora B): 6.00 to 7.00 | pIC50 (JAK2): 5.00 to 6.00

Cn1cc(Nc2ncc3cnn(Cc4cc(F)cc(N5CCOCC5=O)c4)c3n2)cn1 [Example 52, 4-(3-Fluoro-5-((6-((1-methyl-1H-pyrazol-4-yl)amino)-1H-pyrazolo[3,4-d]pyrimidin-1-yl)methyl)phenyl)morpholin-3-one]
JAK3/AurB Fold Selectivity (Aurora B): >50 Fold | pIC50 (Aurora B): 5.00 to 6.00 | pIC50 (JAK2): 5.00 to 6.00

Cn1cc(Nc2ncc3cnn(Cc4cc(N5CCOCC5=O)cc(F)c4F)c3n2)cn1 [Example 53, 4-(3,4-Difluoro-5-((6-((1-methyl-1H-pyrazol-4-yl)amino)-1H-pyrazolo[3,4-d]pyrimidin-1-yl)methyl)phenyl)morpholin-3-one]
JAK3/AurB Fold Selectivity (Aurora B): >50 Fold | pIC50 (Aurora B): 6.00 to 7.00 | pIC50 (JAK2): ≤ 5.00

Cn1cc(Nc2ncc3cnn(Cc4cccc(N5CCNCC5=O)c4F)c3n2)cn1 [Example 54, 1-(2-Fluoro-3-((6-((1-methyl-1H-pyrazol-4-yl)amino)-1H-pyrazolo[3,4-d]pyrimidin-1-yl)methyl)phenyl)piperazin-2-one]
JAK3/AurB Fold Selectivity (Aurora B): >50 Fold | pIC50 (Aurora B): 5.00 to 6.00 | pIC50 (JAK2): 5.00 to 6.00

O=C1CNCCN1c1cccc(Cn2ncc3cnc(Nc4cnn(CCO)c4)nc32)c1F [Example 55, 1-(2-Fluoro-3-((6-((1-(2-hydroxyethyl)-1H-pyrazol-4-yl)amino)-1H-pyrazolo[3,4-d]pyrimidin-1-yl)methyl)phenyl)piperazin-2-one]
JAK3/AurB Fold Selectivity (Aurora B): 10-50 Fold | pIC50 (Aurora B): 6.00 to 7.00 | pIC50 (JAK2): 5.00 to 6.00

OCCn1cc(Nc2ncc3cnn(Cc4cc(N5CCOCC5)cc(F)c4F)c3n2)cn1 [Example 56, 2-(4-((1-(2,3-Difluoro-5-morpholinobenzyl)-1H-pyrazolo[3,4-d]pyrimidin-6-yl)amino)-1H-pyrazol-1-yl)ethanol]
JAK3/AurB Fold Selectivity (Aurora B): >50 Fold | pIC50 (Aurora B): 5.00 to 6.00 | pIC50 (JAK2): ≤ 5.00

O=C1CNCCN1c1cccc(Cn2ncc3cnc(Nc4cnn(CCO)c4)nc32)c1 [Example 57, 1-(3-((6-((1-(2-Hydroxyethyl)-1H-pyrazol-4-yl)amino)-1H-pyrazolo[3,4-d]pyrimidin-1-yl)methyl)phenyl)piperazin-2-one]
JAK3/AurB Fold Selectivity (Aurora B): 10-50 Fold | pIC50 (Aurora B): 6.00 to 7.00 | pIC50 (JAK2): ≤ 5.00

O=C1COCCN1c1cc(F)cc(Cn2ncc3cnc(Nc4cnn(CCO)c4)nc32)c1 [Example 58, 4-(3-Fluoro-5-((6-((1-(2-hydroxyethyl)-1H-pyrazol-4-yl)amino)-1H-pyrazolo[3,4-d]pyrimidin-1-yl)methyl)phenyl)morpholin-3-one]
JAK3/AurB Fold Selectivity (Aurora B): 10-50 Fold | pIC50 (Aurora B): 6.00 to 7.00 | pIC50 (JAK2): 5.00 to 6.00

O=C1COCCN1c1cc(F)c(F)c(Cn2ncc3cnc(Nc4cnn(CCO)c4)nc32)c1 [Example 59, 4-(3,4-Difluoro-5-((6-((1-(2-hydroxyethyl)-1H-pyrazol-4-yl)amino)-1H-pyrazolo[3,4-d]pyrimidin-1-yl)methyl)phenyl)morpholin-3-one]
JAK3/AurB Fold Selectivity (Aurora B): 10-50 Fold | pIC50 (Aurora B): 6.00 to 7.00 | pIC50 (JAK2): ≤ 5.00

c1cc(Cn2ncc3cnc(Nc4cnn(CC5CCNC5)c4)nc32)cc(N2CCOCC2)c1 (stereo not drawn) [Example 60, 1-(3-Morpholinobenzyl)-N-(1-(pyrrolidin-3-ylmethyl)-1H-pyrazol-4-yl)-1H-pyrazolo[3,4-d]pyrimidin-6-amine]
JAK3/AurB Fold Selectivity (Aurora B): >50 Fold | pIC50 (Aurora B): 5.00 to 6.00 | pIC50 (JAK2): 5.00 to 6.00

Cn1cc(Nc2ncc3cnn(Cc4c(F)c(F)cc(N5CCOCC5=O)c4F)c3n2)cn1 [Example 61, 4-(2,4,5-Trifluoro-3-((6-((1-methyl-1H-pyrazol-4-yl)amino)-1H-pyrazolo[3,4-d]pyrimidin-1-yl)methyl)phenyl)morpholin-3-one]
JAK3/AurB Fold Selectivity (Aurora B): 10-50 Fold | pIC50 (Aurora B): 6.00 to 7.00 | pIC50 (JAK2): 5.00 to 6.00

O=C1COCCN1c1cc(F)c(F)c(Cn2ncc3cnc(Nc4cnn(CCO)c4)nc32)c1F [Example 62, 4-(2,4,5-Trifluoro-3-((6-((1-(2-hydroxyethyl)-1H-pyrazol-4-yl)amino)-1H-pyrazolo[3,4-d]pyrimidin-1-yl)methyl)phenyl)morpholin-3-one]
JAK3/AurB Fold Selectivity (Aurora B): 10-50 Fold | pIC50 (Aurora B): 6.00 to 7.00 | pIC50 (JAK2): 5.00 to 6.00

O=C1CNCCN1c1cc(F)cc(Cn2ncc3cnc(Nc4cnn(CCO)c4)nc32)c1 [Example 63, 1-(3-Fluoro-5-((6-((1-(2-hydroxyethyl)-1H-pyrazol-4-yl)amino)-1H-pyrazolo[3,4-d]pyrimidin-1-yl)methyl)phenyl)piperazin-2-one]
JAK3/AurB Fold Selectivity (Aurora B): 3-10 Fold | pIC50 (Aurora B): > 7.00 | pIC50 (JAK2): 5.00 to 6.00

Cn1cc(Nc2ncc3cnn(Cc4cc(F)cc(N5CCNCC5=O)c4)c3n2)cn1 [Example 64, 1-(3-Fluoro-5-((6-((1-methyl-1H-pyrazol-4-yl)amino)-1H-pyrazolo[3,4-d]pyrimidin-1-yl)methyl)phenyl)piperazin-2-one]
JAK3/AurB Fold Selectivity (Aurora B): 10-50 Fold | pIC50 (Aurora B): 6.00 to 7.00 | pIC50 (JAK2): 5.00 to 6.00

COC1CN(c2cccc(Cn3ncc4cnc(Nc5cnn(C)c5)nc43)c2)C1 [Example 65, 1-(3-(3-Methoxyazetidin-1-yl)benzyl)-N-(1-methyl-1H-pyrazol-4-yl)-1H-pyrazolo[3,4-d]pyrimidin-6-amine]
JAK3/AurB Fold Selectivity (Aurora B): >50 Fold | pIC50 (Aurora B): 5.00 to 6.00 | pIC50 (JAK2): ≤ 5.00

Cn1cc(Nc2ncc3cnn(Cc4c(F)c(F)cc(N5CCNCC5)c4F)c3n2)cn1 [Example 66, N-(1-Methyl-1H-pyrazol-4-yl)-1-(2,3,6-trifluoro-5-(piperazin-1-yl)benzyl)-1H-pyrazolo[3,4-d]pyrimidin-6-amine]
JAK3/AurB Fold Selectivity (Aurora B): 3-10 Fold | pIC50 (Aurora B): > 7.00 | pIC50 (JAK2): 5.00 to 6.00

Cn1cc(Nc2ncc3cnn(Cc4cccc(N5CCNCC5)c4F)c3n2)cn1 [Example 67, 1-(2-Fluoro-3-(piperazin-1-yl)benzyl)-N-(1-methyl-1H-pyrazol-4-yl)-1H-pyrazolo[3,4-d]pyrimidin-6-amine]
JAK3/AurB Fold Selectivity (Aurora B): 10-50 Fold | pIC50 (Aurora B): 6.00 to 7.00 | pIC50 (JAK2): 5.00 to 6.00

CNC(=O)Cn1cc(Nc2ncc3cnn(Cc4cc(F)cc(N5CCOCC5=O)c4)c3n2)cn1 [Example 68, 2-(4-((1-(3-Fluoro-5-(3-oxomorpholino)benzyl)-1H-pyrazolo[3,4-d]pyrimidin-6-yl)amino)-1H-pyrazol-1-yl)-N-methylacetamide]
JAK3/AurB Fold Selectivity (Aurora B): >50 Fold | pIC50 (Aurora B): 6.00 to 7.00 | pIC50 (JAK2): 5.00 to 6.00
